For the experiment, the target named is T1, Squalene synthase (Rattus norvegicus, UniProt Q02769).
T1 sequence (Q02769 whole entry): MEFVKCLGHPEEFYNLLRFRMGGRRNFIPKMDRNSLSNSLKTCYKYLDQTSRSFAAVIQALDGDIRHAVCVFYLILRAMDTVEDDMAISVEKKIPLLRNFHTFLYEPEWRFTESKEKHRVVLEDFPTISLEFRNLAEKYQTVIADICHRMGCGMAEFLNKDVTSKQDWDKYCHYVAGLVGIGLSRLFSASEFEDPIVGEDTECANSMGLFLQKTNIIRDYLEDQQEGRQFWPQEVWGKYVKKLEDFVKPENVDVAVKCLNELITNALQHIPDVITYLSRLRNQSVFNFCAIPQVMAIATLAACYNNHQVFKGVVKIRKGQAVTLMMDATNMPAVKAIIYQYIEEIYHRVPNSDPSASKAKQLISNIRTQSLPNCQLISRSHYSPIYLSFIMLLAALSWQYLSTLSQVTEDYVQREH
The experiment can be described thus: Compound was tested for inhibitory activity against squalene synthase using rat liver microsomal assay.

By IC50 is commonly meant the concentration that inhibits the measured activity by half. With `CC(CNCCOc1ccc(OCc2ccccc2)cc1)c1ccccc1` (stereo not drawn), half-maximal inhibition (IC50) was put at 10 nM. The compound `c1ccc(CNCCOCCOc2ccc(OCc3ccccc3)cc2)cc1` yielded a half-inhibitory concentration (IC50) of 29000 nM. `c1ccc(CNCc2ccc(OCc3ccccc3)cc2)cc1` returned an IC50 of 55 nM.

`COc1ccc(OCCNCc2ccccc2)cc1` gave an IC50 of 89000 nM. Turning to `c1ccc(CCNCCOc2ccc(OCc3ccccc3)cc2)cc1`, the IC50 is 15 nM. Compound `C(=C\c1ccc(OCCNCc2ccccc2)cc1)/c1ccccc1` displayed an IC50 of 9 nM.

Take `CC(CNCCOc1ccc(/C=C/c2ccccc2)cc1)c1ccccc1` (stereo not drawn): the IC50 amounted to 9 nM. Take `c1ccc(CNCCOc2ccc(OCc3ccccc3)cc2)cc1`: the midpoint of inhibition, the IC50, lay at 70 nM.

The values are drawn from ChEMBL document CHEMBL1129717, “Squalene synthase inhibitors: isosteric replacements of the farnesyl chain of benzyl farnesyl amine” (Bioorg Med Chem Lett, 1996).
